Laboratory results as given in PMC6979384, “Characterization of the plant homeodomain (PHD) reader family for their histone tail interactions” (Epigenetics & Chromatin, 2020).
Blank lines part the entries; values can stand above or below the substance they belong to. Where no end group is shown, it is not given here.

How the values were obtained:
[1] = test system: 123 annotated human PHD-containing domains; experiment: PHD finger domain microarray probed with biotinylated peptides (all domains); format: binding; conditions: GST-PHD readers in duplicate on nitrocellulose slides, biotinylated peptide pre-labeled with streptavidin-Cy3
Excerpt: To define the histone binding preferences of the PHD finger proteome, we expressed and purified 123 annotated human PHD-containing domains as GST-tagged recombinant fusions from E. coli. The recombinant proteins consisted of either PHD fingers in isolation, or as tandem domains if a given PHD finger was located adjacent to another reader domain (e.g., one or more PHD fingers, Tudor, chromo and/or bromodomains) (Additional file 1: Table S1). These GST fusions were printed in duplicate on nitrocellulose-coated microarray slides and probed with biotinylated peptides that represented the N-termini of H3, H4, H2A or H2B (Fig. 1a and Additional file 2: Figure S1). As the majority of PHD readers thus far characterized are H3K4me0/3 readers, we included additional peptides (H3K4 as either mono-, di-, or trimethylated) to further determine any H3K4 methyl preference (Additional file 2: Figure S2 and Fig. 1b). As a control, we also probed these microarrays with an α-Tubulin peptide (a.a. 30–50) that would not be predicted to interact with PHD fingers (Additional file 2: Figure S1). […] We also cannot exclude the possibility that some PHD fingers might not be functionally active on the microarrays (perhaps due to misfolding or the lack of an important adjacent region).
The protein domain microarray was designed to include 123 GST-tagged PHD-domain containing recombinant proteins. Protein domain microarray development and probing was as previously. Briefly, recombinant proteins were synthesized and cloned into pGEX-4T-1 vector by Biomatik Corporation. These GST-PHD readers were subsequently expressed, purified, and spotted in duplicate onto nitrocellulose-coated glass slides (Oncyte Avid slides, Grace Bio-Labs) using a pin arrayer (Aushon 2470, Aushon). For probing, microarray slides were blocked with 3% milk, 3% bovine serum albumin, 0.1% Tween 20 in PBS. Biotinylated peptides were pre-labeled with streptavidin-Cy3 fluorophore (GE Healthcare) and incubated with the blocked array slides. Slides were then washed with PBST and allowed to air dry. Fluorescent interactions were visualized using a GenePix 4200A Microarray Scanner (Molecular Devices).

[2] = test system: TRIM66 (PB); experiment: Histone peptide microarray; format: binding, human; conditions: TRIM66 (PB); sheet "Array Heatmap"; each array performed twice, total n = 4
How it was run: (§1)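 Using an optimized microarray protocol, purified GST-tagged PHD fingers were incubated at 0.5 μM on 293 histone peptides with single or multiple modifications, and array signal was recorded as the average of 4 replicates.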

[3] = test system: PHF13; experiment: Histone peptide microarray; format: binding, human; conditions: PHF13; sheet "Array Heatmap"; each array performed twice, total n = 4
How it was run: as §1

[4] = test system: PHF23; experiment: Histone peptide microarray; format: binding, human; conditions: PHF23; sheet "Array Heatmap"; each array performed twice, total n = 4
How it was run: as §1

[5] = test system: DIDO1; experiment: Histone peptide microarray; format: binding, human; conditions: DIDO1; sheet "Array Heatmap"; each array performed twice, total n = 4
How it was run: as §1

[6] = test system: DPF2 (PPC2W2); experiment: Histone peptide microarray; format: binding, human; conditions: DPF2 (PPC2W2); sheet "Array Heatmap"; each array performed twice, total n = 4
How it was run: as §1

[7] = test system: ING4; experiment: Histone peptide microarray; format: binding, human; conditions: ING4; sheet "Array Heatmap"; each array performed twice, total n = 4
How it was run: as §1

[8] = test system: CHD5 (PPCC); experiment: Histone peptide microarray; format: binding, human; conditions: CHD5 (PPCC); sheet "Array Heatmap"; each array performed twice, total n = 4
How it was run: as §1

[9] = test system: MLL5; experiment: Histone peptide microarray; format: binding, human; conditions: MLL5; sheet "Array Heatmap"; each array performed twice, total n = 4
How it was run: as §1

[10] = test system: ING5; experiment: Histone peptide microarray; format: binding, human; conditions: ING5; sheet "Array Heatmap"; each array performed twice, total n = 4
How it was run: as §1

[11] = test system: KDM5A (3); experiment: Histone peptide microarray; format: binding, human; conditions: KDM5A (3); sheet "Array Heatmap"; each array performed twice, total n = 4
How it was run: as §1

[12] = test system: ING3; experiment: Histone peptide microarray; format: binding, human; conditions: ING3; sheet "Array Heatmap"; each array performed twice, total n = 4
How it was run: as §1

[13] = test system: PHF21A; experiment: Histone peptide microarray; format: binding, human; conditions: PHF21A; sheet "Array Heatmap"; each array performed twice, total n = 4
How it was run: as §1

[14] = test system: AIRE (PP); experiment: Histone peptide microarray; format: binding, human; conditions: AIRE (PP); sheet "Array Heatmap"; each array performed twice, total n = 4
How it was run: as §1

[15] = test system: PHRF1 (RP); experiment: Histone peptide microarray; format: binding, human; conditions: PHRF1 (RP); sheet "Array Heatmap"; each array performed twice, total n = 4
How it was run: as §1

[16] = test system: KDM5B (3); experiment: Histone peptide microarray; format: binding, human; conditions: KDM5B (3); sheet "Array Heatmap"; each array performed twice, total n = 4
How it was run: as §1

[17] = test system: BPTF (PB); experiment: Histone peptide microarray; format: binding, human; conditions: BPTF (PB); sheet "Array Heatmap"; each array performed twice, total n = 4
How it was run: as §1

[18] = test system: SP140L; experiment: Histone peptide microarray; format: binding, human; conditions: SP140L; sheet "Array Heatmap"; each array performed twice, total n = 4
How it was run: as §1

[19] = test system: KDM5B (1); experiment: Histone peptide microarray; format: binding, human; conditions: KDM5B (1); sheet "Array Heatmap"; each array performed twice, total n = 4
How it was run: as §1

[20] = test system: MORC3 (CW); experiment: Histone peptide microarray; format: binding, human; conditions: MORC3 (CW); sheet "Array Heatmap"; each array performed twice, total n = 4
How it was run: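 A peptide microarray holding 293 synthetic histone peptides with individual or combinatorial modifications was probed with each GST-PHD protein at 0.5 μM. Values represent mean intensity (±SD) from four replicates.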

[21] = test system: RAG2; experiment: Histone peptide microarray; format: binding, human; conditions: RAG2; sheet "Array Heatmap"; each array performed twice, total n = 4
How it was run: as §1

[22] = test system: KDM7A; experiment: Histone peptide microarray; format: binding, human; conditions: KDM7A; sheet "Array Heatmap"; each array performed twice, total n = 4
How it was run: as §1

[23] = test system: ING2; experiment: Histone peptide microarray; format: binding, human; conditions: ING2; sheet "Array Heatmap"; each array performed twice, total n = 4
How it was run: as §1

[24] = test system: ING1; experiment: Histone peptide microarray; format: binding, human; conditions: ING1; sheet "Array Heatmap"; each array performed twice, total n = 4
How it was run: as §1

[25] = test system: PHF8; experiment: Histone peptide microarray; format: binding, human; conditions: PHF8; sheet "Array Heatmap"; each array performed twice, total n = 4
How it was run: as §1

[26] = test system: BAZ2B; experiment: Histone peptide microarray; format: binding, human; conditions: BAZ2B; sheet "Array Heatmap"; each array performed twice, total n = 4
How it was run: as §1

[27] = test system: KDM4C (TTP); experiment: Histone peptide microarray; format: binding, human; conditions: KDM4C (TTP); sheet "Array Heatmap"; each array performed twice, total n = 4
How it was run: as §1

[28] = test system: PHF2; experiment: Histone peptide microarray; format: binding, human; conditions: PHF2; sheet "Array Heatmap"; each array performed twice, total n = 4
How it was run: as §1

[29] = test system: TAF3; experiment: Histone peptide microarray; format: binding, human; conditions: TAF3; sheet "Array Heatmap"; each array performed twice, total n = 4
How it was run: as §1

[30] = test system: CHD5 (PCC); experiment: Histone peptide microarray; format: binding, human; conditions: CHD5 (PCC); sheet "Array Heatmap"; each array performed twice, total n = 4
How it was run: as §1

[31] = test system: CHD4 (PPCC); experiment: Histone peptide microarray; format: binding, human; conditions: CHD4 (PPCC); sheet "Array Heatmap"; each array performed twice, total n = 4
How it was run: as §1

[32] = test system: KDM5A (1); experiment: Histone peptide microarray; format: binding, human; conditions: KDM5A (1); sheet "Array Heatmap"; each array performed twice, total n = 4
How it was run: as §1

binding on domain microarray [1]: little to no positive interactions
Substance: H4: biotinylated N-terminal H4 peptide (Figure S1: Ac-H4 (1-16)) (SGRGKGGKGLGKGGAK; biotin, N-terminal acetyl; UniProt P62805 2-17, looked up, fragment) [Peptide H4]

binding on domain microarray [1]: No detectable binding observed
Substance: Ac-H2A (1-17): histone peptide (Ac-SGRGKQGGKARAKAKTR; UniProt P0C0S8 2-18, looked up, fragment)

binding on domain microarray [1]: No detectable binding observed
binding on domain microarray ([1]; listed as tubulin): little to no positive interactions
Substance: α-Tubulin (30-50): α-Tubulin peptide (a.a. 30–50), control (IQPDGQMPSDKTIGGGDDSFN; also: biotin (end not given here))

Second part, the substance before the results:

Substance: H2B: biotinylated N-terminal H2B peptide (Figure S1: H2B (1-24)) [Peptide H2B]
binding on domain microarray [1]: little to no positive interactions

Substance: Ac-H4 (1-16): histone peptide (SGRGKGGKGLGKGGAK; N-terminal acetylation; UniProt P62805 2-17, looked up, fragment)
binding on domain microarray [1]: No detectable binding observed

Substance: H2A.X (1-17): H2AX 1-17 (SGRGKTGGKARAKAKSR; UniProt P16104 2-18, looked up, fragment)
Array Heatmap value (peptide array signal) [2]: 0.5377
Array Heatmap value (peptide array signal) [3]: 0.6046
Array Heatmap value (peptide array signal) [4]: 0.4786
Array Heatmap value (peptide array signal) [5]: 0.6032
Array Heatmap value (peptide array signal) [6]: 0.6636
Array Heatmap value (peptide array signal) [7]: 0.4775
Array Heatmap value (peptide array signal) [8]: 0.5657
Array Heatmap value (peptide array signal) [9]: 0.5474
Array Heatmap value (peptide array signal) [10]: 0.3684
Array Heatmap value (peptide array signal) [11]: 0.4093
Array Heatmap value (peptide array signal) [12]: 0.4419
Array Heatmap value (peptide array signal) [13]: 0.4705
Array Heatmap value (peptide array signal) [14]: 0.5574
Array Heatmap value (peptide array signal) [15]: 0.3918
Array Heatmap value (peptide array signal) [16]: 0.4974
Array Heatmap value (peptide array signal) [17]: 0.3452
Array Heatmap value (peptide array signal) [18]: 0.3804
Array Heatmap value (peptide array signal) [19]: 0.6651
Array Heatmap value (peptide array signal) [20]: 0.3549
Array Heatmap value (peptide array signal) [21]: 0.2388
Array Heatmap value (peptide array signal) [22]: 0.5198
Array Heatmap value (peptide array signal) [23]: 0.5852
Array Heatmap value (peptide array signal) [24]: 0.4806
Array Heatmap value (peptide array signal) [25]: 0.3196
Array Heatmap value (peptide array signal) [26]: 0.5024
Array Heatmap value (peptide array signal) [27]: 0.5423
Array Heatmap value (peptide array signal) [28]: 0.3941
Array Heatmap value (peptide array signal) [29]: 0.2689
Array Heatmap value (peptide array signal) [30]: 0.8255
Array Heatmap value (peptide array signal) [31]: 0.5416
Array Heatmap value (peptide array signal) [32]: 0.4987

Substance: H3K4me3 (1-11): H3 1-11
Array Heatmap value (peptide array signal) [2]: 0.5622
Array Heatmap value (peptide array signal) [3]: 0.6221
Array Heatmap value (peptide array signal) [4]: 0.5829
Array Heatmap value (peptide array signal) [5]: 0.7285
Array Heatmap value (peptide array signal) [6]: 0.6949
Array Heatmap value (peptide array signal) [7]: 0.465
Array Heatmap value (peptide array signal) [8]: 0.5701
Array Heatmap value (peptide array signal) [9]: 0.6217
Array Heatmap value (peptide array signal) [10]: 0.3839
Array Heatmap value (peptide array signal) [11]: 0.6017
Array Heatmap value (peptide array signal) [12]: 0.5106
Array Heatmap value (peptide array signal) [13]: 0.5172
Array Heatmap value (peptide array signal) [14]: 0.5119
Array Heatmap value (peptide array signal) [15]: 0.4768
Array Heatmap value (peptide array signal) [16]: 0.5281
Array Heatmap value (peptide array signal) [17]: 0.3697
Array Heatmap value (peptide array signal) [18]: 0.3833
Array Heatmap value (peptide array signal) [19]: 0.6584
Array Heatmap value (peptide array signal) [20]: 0.5155
Array Heatmap value (peptide array signal) [21]: 0.3044
Array Heatmap value (peptide array signal) [22]: 0.4006
Array Heatmap value (peptide array signal) [23]: 0.6411
Array Heatmap value (peptide array signal) [24]: 0.5841
Array Heatmap value (peptide array signal) [25]: 0.4899
Array Heatmap value (peptide array signal) [26]: 0.4805
Array Heatmap value (peptide array signal) [27]: 0.5306
Array Heatmap value (peptide array signal) [28]: 0.5693
Array Heatmap value (peptide array signal) [29]: 0.3193
Array Heatmap value (peptide array signal) [30]: 0.8101
Array Heatmap value (peptide array signal) [31]: 0.5943
Array Heatmap value (peptide array signal) [32]: 0.5087
